Results from patent US20060030585A1, “Tricyclic delta-opioid modulators” (priority 2004, published 2006).
Where two headings read alike, the source gives them in different places.

Tests used:
delta opioid receptor = delta opioid receptor (Rattus norvegicus, UniProt P33533); test: Rat brain delta opioid receptor binding assay ([3H]DPDPE); conditions: Rat delta opioid receptor binding constant, rat forebrain membranes, ~4 nM [3H]DPDPE
Procedure: Rat Brain Delta Opioid Receptor Binding Assay
Procedure: Male, Sprague Dawley rats (150-250 g, VAF, Charles River, Kingston, N.Y.) were killed by CO2, and their brains removed and placed immediately in ice cold Tris HCl buffer (50 mM, pH 7.4). The forebrains were separated from the remainder of the brain by a coronal transection, beginning dorsally at the colliculi and passing ventrally through the midbrain-pontine junction. After dissection, the forebrains were homogenized in Tris buffer in a Teflon®-glass homogenizer. The homogenate was diluted to a concentration of 1 g of forebrain tissue per 80 mL Tris and centrifuged at 39,000×g for 10 min. The pellet was resuspended in the same volume of Tris buffer containing 5 mM MgCl2 with several brief pulses from a Polytron homogenizer. This particulate preparation was used for the delta opioid binding assays. Following incubation with the delta selective peptide ligand ˜4 nM [^3H]DPDPE at 25° C. for 2.5 h in a 96-well plate with total volume of 1 mL, the plate contents were filtered through Wallac filtermat B sheets on a Tomtec 96-well harvester. The filters were rinsed three times with 2 mL of 10 mM HEPES (pH 7.4), and dried in a 650 W microwave oven for 1.75 min twice. To each sample area 2×50 μL of Betaplate Scint scintillation fluid (LKB) was added and the radioactivity quantified on a LKB (Wallac) 1205 BetaPlate liquid scintillation counter.
(§1) Analysis: The data from the scintillation counter were used to calculate either the % inhibition compared to control binding (when only a single concentration of test compound was evaluated) or a Ki value (when a range of concentrations was tested). Percent inhibition was calculated as: [(total dpm-test compound dpm)/(total dpm-nonspecific dpm)]*100. Kd and Ki values were calculated using GraphPad PRISM data analysis program.

mu opioid receptor = mu opioid receptor (Rattus norvegicus, UniProt P33535); test: Rat brain mu opioid receptor binding assay ([3H]DAMGO); conditions: Rat mu opioid receptor binding constant, rat forebrain membranes, ~0.8 nM [3H]DAMGO
Procedure: Rat Brain Mu Opioid Receptor Binding Assay
Procedure: Male, Sprague Dawley rats (150-250 g, VAF, Charles River, Kingston, N.Y.) were killed by CO2, and their brains removed and placed immediately in ice cold Tris HCl buffer (50 mM, pH 7.4). The forebrains were separated from the remainder of the brain by a coronal transection, beginning dorsally at the colliculi and passing ventrally through the midbrain-pontine junction. After dissection, the forebrains were homogenized in Tris buffer in a Teflon®-glass homogenizer. The homogenate was diluted to a concentration of 1 g of forebrain tissue per 80 mL Tris and centrifuged at 39,000×g for 10 min. The pellet was resuspended in the same volume of Tris buffer containing 5 mM MgCl2 with several brief pulses from a Polytron homogenizer. This particulate preparation was used for the delta opioid binding assays.
as §1, with “concentrations” for “concentrations was”

mu opioid receptor, sequence (P33535 whole entry): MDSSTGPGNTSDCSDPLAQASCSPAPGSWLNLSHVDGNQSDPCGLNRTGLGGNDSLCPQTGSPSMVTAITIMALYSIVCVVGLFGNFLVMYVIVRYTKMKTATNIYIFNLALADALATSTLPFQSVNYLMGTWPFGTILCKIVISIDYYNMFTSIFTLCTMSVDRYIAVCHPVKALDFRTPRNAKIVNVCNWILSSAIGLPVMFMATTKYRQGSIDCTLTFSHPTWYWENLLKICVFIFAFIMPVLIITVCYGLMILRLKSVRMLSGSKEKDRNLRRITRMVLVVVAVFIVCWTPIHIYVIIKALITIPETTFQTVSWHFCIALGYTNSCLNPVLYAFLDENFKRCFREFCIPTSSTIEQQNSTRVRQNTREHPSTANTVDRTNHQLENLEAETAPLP
delta opioid receptor, sequence (P33533 whole entry): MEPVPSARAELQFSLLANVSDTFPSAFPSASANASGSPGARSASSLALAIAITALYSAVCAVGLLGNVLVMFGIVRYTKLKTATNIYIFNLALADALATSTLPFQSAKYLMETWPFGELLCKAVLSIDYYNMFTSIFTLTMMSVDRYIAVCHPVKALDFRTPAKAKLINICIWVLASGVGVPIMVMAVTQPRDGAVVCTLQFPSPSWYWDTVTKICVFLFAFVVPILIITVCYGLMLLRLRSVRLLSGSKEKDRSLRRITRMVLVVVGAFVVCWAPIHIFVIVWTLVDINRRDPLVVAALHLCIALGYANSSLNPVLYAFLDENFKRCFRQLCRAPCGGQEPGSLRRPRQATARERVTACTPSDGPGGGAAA

SMILES	Ki (delta opioid receptor; DOR Ki)	Ki (mu opioid receptor; MOR Ki)	Ki (delta opioid receptor; read-out: DOR Ki)	Ki (mu opioid receptor; read-out: MOR Ki)
COc1ccc(-c2ccc3c(c2)Oc2ccccc2C3=C2CC3CCC(C2)N3)cn1 [Cpd 32]	0.16 µM	–	–	–
c1ccc2c(c1)Oc1cc(C3=NCCN3)ccc1C2=C1CC2CCC(C1)N2 [Cpd 33]	0.224 µM	0.315 µM	–	–
Oc1cccc(-c2ccc3c(c2)Oc2ccccc2C3=C2CC3CCC(C2)N3)c1 [Cpd 38]	0.418 µM	0.706 µM	–	–
O=C(c1ccc2c(c1)Oc1ccccc1C2=C1CC2CCC(C1)N2)N1CCC(O)C1 (single isomer, unassigned) [Cpd 127]	0.191 µM	0.907 µM	–	–
CCc1cnc(-c2ccc3c(c2)Oc2ccccc2C3=C2CC3CCC(C2)N3)[nH]1 [Cpd 26, 3-[3-(5-Ethyl-1 H-imidazol-2-yl)-xanthen-9-ylidene]-8-aza-bicyclo[3.2.1]-octane]	0.081 µM	0.249 µM	–	–
COC[C@H](Cc1ccccc1)NC(=O)c1ccc2c(c1)Oc1ccccc1C2=C1CC2CCC(C1)N2 [Cpd 31]	–	–	0.142 µM	0.66 µM
COc1cccc2c1Oc1cc(-c3cnc4ccccc4c3)ccc1C2=C1CC2CCC(C1)N2 [Cpd 104]	–	–	0.246 µM	1.71 µM
OCc1cccc(-c2ccc3c(c2)Oc2ccccc2C3=C2CC3CCC(C2)N3)c1 [Cpd 23]	0.075 µM	3.51 µM	–	–
Cn1nnnc1-c1ccc2c(c1)Oc1ccccc1C2=C1CC2CCC(C1)N2 [Cpd 21, 3-[3-(1-Methyl-1 H-tetrazol-5-yl)-xanthen-9-ylidene]-8-aza-bicyclo[3.2.1]octane]	0.054 µM	1.74 µM	–	–
N#Cc1ccc2c(c1)Sc1ccccc1C2=C1CC2CCC(C1)N2 [Cpd 85, 9-(8-Aza-bicyclo[3.2.1]oct-3-ylidene)-9H-thioxanthene-3-carbonitrile]	0.629 µM	2.31 µM	–	–
c1ccc2c(c1)Oc1cc(-c3nnn[nH]3)ccc1C2=C1CC2CCC(C1)N2 [Cpd 81]	–	–	0.0005 µM	0.261 µM
CC(=O)Nc1ccccc1-c1ccc2c(c1)Oc1ccccc1C2=C1CC2CCC(C1)N2C(=O)C(F)(F)F [Cpd 130]	–	–	> 10 µM	> 10 µM
Brc1ccc2c(c1)Sc1ccccc1C2=C1CC2CCC(C1)N2 [Cpd 84, 3-(3-Bromo-thioxanthen-9-ylidene)-8-aza-bicyclo[3.2.1]octane]	2.9 µM	> 10 µM	–	–
CN(C)CCN(C)C(=O)c1ccc2c(c1)Oc1ccccc1C2=C1CC2CCC(C1)N2 [Cpd 56]	4.93 µM	28.5 µM	–	–
O=C(c1ccc2c(c1)Oc1ccccc1C2=C1CC2CCC(C1)N2)N1CCC(O)C1 (single isomer, unassigned) [Cpd 70]	0.063 µM	1.66 µM	–	–
O=C(NCc1ccccc1)c1ccc2c(c1)Oc1ccccc1C2=C1CC2CCC(C1)N2 [Cpd 40]	–	–	0.456 µM	3.09 µM
NC(=NO)c1ccc2c(c1)Oc1ccccc1C2=C1CC2CCC(C1)N2 [Cpd 24]	0.0768 µM	0.621 µM	–	–
O=C(c1ccc2c(c1)Oc1ccccc1C2=C1CC2CCC(C1)N2)N(CC(F)(F)F)CC(F)(F)F [Cpd 48]	–	–	0.939 µM	2.06 µM
O=c1[nH]c(-c2ccc3c(c2)Oc2ccccc2C3=C2CC3CCC(C2)N3)ns1 [Cpd 95]	–	–	0.159 µM	4.93 µM
c1ccc2c(c1)Oc1cc(-c3ccsc3)ccc1C2=C1CC2CCC(C1)N2 [Cpd 55]	4.72 µM	9.28 µM	–	–
CN(C(=O)c1ccc2c(c1)Oc1ccccc1C2=C1CC2CCC(C1)N2)c1ccc(F)cc1 [Cpd 66]	0.093 µM	0.935 µM	–	–
COc1cccc(C2CCCN(C(=O)c3ccc4c(c3)Oc3ccccc3C4=C3CC4CCC(C3)N4)C2)c1 (stereo not drawn) [Cpd 65]	0.088 µM	0.317 µM	–	–
CN(C(=O)c1ccc2c(c1)Oc1ccccc1C2=C1CC2CCC(C1)N2)C1CCCCC1 [Cpd 22]	0.0549 µM	1.12 µM	–	–
CN(CCO)C(=O)c1ccc2c(c1)Oc1ccccc1C2=C1CC2CCC(C1)N2 [Cpd 61, 9-(8-Aza-bicyclo[3.2.1]oct-3-ylidene)-9H-xanthene-3-carboxylic acid (2-hydroxy-ethyl)-methyl-amide]	0.00625 µM	0.876 µM	–	–

SMILES	Ki (delta opioid receptor; DOR Ki)	Ki (mu opioid receptor; MOR Ki)	Ki (delta opioid receptor; read-out: DOR Ki)	Ki (mu opioid receptor; read-out: MOR Ki)
COc1cccc2c1Oc1cc(Br)ccc1C2=C1CC2CCC(C1)N2 [Cpd 79]	0.192 µM	4.78 µM	–	–
O=C(NCCc1ccccc1)c1ccc2c(c1)Oc1ccccc1C2=C1CC2CCC(C1)N2 [Cpd 19]	0.045 µM	0.438 µM	–	–
N=C(c1ccc2c(c1)Oc1ccccc1C2=C1CC2CCC(C1)N2)N1CCCCC1 [Cpd 43]	0.496 µM	5.34 µM	–	–
CN(CCc1ccccc1)C(=O)c1ccc2c(c1)Oc1ccccc1C2=C1CC2CCC(C1)N2 [Cpd 17]	0.037 µM	0.037 µM	–	–
COc1cccc2c1Oc1cc(-c3ccsc3)ccc1C2=C1CC2CCC(C1)N2 [Cpd 106]	–	–	0.281 µM	2.74 µM
COC(=O)[C@H](CO)NC(=O)c1ccc2c(c1)Oc1ccccc1C2=C1CC2CCC(C1)N2 [Cpd 37]	0.412 µM	0.95 µM	–	–
CC(C)CNC(=N)c1ccc2c(c1)Oc1ccccc1C2=C1CC2CCC(C1)N2 [Cpd 49]	1.33 µM	4.02 µM	–	–
c1ccc2c(c1)Oc1cc(C3=NCCCN3)ccc1C2=C1CC2CCC(C1)N2 [Cpd 41]	0.464 µM	0.875 µM	–	–
NC(=O)c1ccccc1-c1ccc2c(c1)Oc1ccccc1C2=C1CC2CCC(C1)N2 [Cpd 18]	0.038 µM	1.54 µM	–	–
O=S1NC(c2ccc3c(c2)Oc2ccccc2C3=C2CC3CCC(C2)N3)=NO1 (stereo not drawn) [Cpd 10, 3-[3-(2-Oxo-2,3-dihydro-2|4-[1,2,3,5]oxathiadiazol-4-yl)-xanthen-9-ylidene]-8-aza-bicyclo[3.2.1]octane]	0.0151 µM	0.819 µM	–	–
Nc1ccc(-c2ccc3c(c2)Oc2ccccc2C3=C2CC3CCC(C2)N3)cc1 [Cpd 42]	0.49 µM	1.31 µM	–	–
COC(=O)c1ccc2c(c1)Sc1ccccc1C2=C1CC2CCC(C1)N2 [Cpd 76]	–	–	0.37 µM	4.74 µM
O=C(NC1CCCC1)c1ccc2c(c1)Oc1ccccc1C2=C1CC2CCC(C1)N2 [Cpd 45]	0.673 µM	3.1 µM	–	–
O=C(NC(CO)Cc1ccccc1)c1ccc2c(c1)Oc1ccccc1C2=C1CC2CCC(C1)N2 (single isomer, unassigned) [Cpd 27]	0.1 µM	0.1 µM	–	–
COc1cccc2c1Oc1cc(-c3noc(=S)[nH]3)ccc1C2=C1CC2CCC(C1)N2 [Cpd 133, 3-[9-(8-Aza-bicyclo[3.2.1]oct-3-ylidene)-5-methoxy-9H-xanthen-3-yl]-4H-[1,2,4]oxadiazole-5-thione]	0.00237 µM	0.371 µM	–	–
O=C(c1ccc2c(c1)Oc1ccccc1C2=C1CC2CCC(C1)N2)N1CCC(O)C1 (single isomer, unassigned) [Cpd 69]	0.105 µM	2.06 µM	–	–
COc1cccc2c1Oc1cc(-c3noc(=O)[nH]3)ccc1C2=C1CC2CCC(C1)N2 [Cpd 132, 3-[9-(8-Aza-bicyclo[3.2.1]oct-3-ylidene)-5-methoxy-9H-xanthen-3-yl]-4H-[1,2,4]oxadiazol-5-one]	0.00032 µM	0.254 µM	–	–
Fc1cccc(-c2ccc3c(c2)Oc2ccccc2C3=C2CC3CCC(C2)N3)c1 [Cpd 51]	2.44 µM	16.5 µM	–	–
c1ccc(Sc2ccc3c(c2)Sc2ccccc2C3=C2CC3CCC(C2)N3)cc1 [Cpd 83, 3-(3-Phenylsulfanyl-thioxanthen-9-ylidene)-8-aza-bicyclo[3.2.1]octane]	8.51 µM	> 10 µM	–	–
COc1cccc2c1Oc1cc(-c3ccoc3)ccc1C2=C1CC2CCC(C1)N2 [Cpd 105]	–	–	0.088 µM	0.497 µM
Fc1ccc(-c2ccc3c(c2)Oc2ccccc2C3=C2CC3CCC(C2)N3)cc1 [Cpd 54]	4.47 µM	–	–	–
c1cncc(-c2ccc3c(c2)Sc2ccccc2C3=C2CC3CCC(C2)N3)c1 [Cpd 112, 3-(3-Pyridin-3-yl-thioxanthen-9-ylidene)-8-aza-bicyclo[3.2.1]octane]	0.481 µM	1.01 µM	–	–
CC(=O)Nc1ccccc1-c1ccc2c(c1)Sc1ccccc1C2=C1CC2CCC(C1)N2Cc1ccoc1 [Cpd 120]	0.054 µM	–	–	0.183 µM
Cc1cccc(-c2ccc3c(c2)Oc2ccccc2C3=C2CC3CCC(C2)N3)c1 [Cpd 46]	0.723 µM	–	–	–
